Species: Rattus norvegicus
Assay: Open TG-GATES - Regimen: Single
Format: toxicity, organism-based, Sprague-Dawley
Design: regimen Single, gender Male, age 6 weeks
Details: in vivo, po, 300 mg/kg, route gavage, dose level Middle; for APTT / Bas / Eos / Fbg / Hb / Ht / Lym / MCH / MCHC / MCV / Mono / Neu / PT / Plat / RBC / Ret / WBC: tissue Blood; for KIDNEY_L / KIDNEY_R / KIDNEY_TOTAL: tissue Kidney; for LIVER: tissue Liver; for A/G / ALP / ALT / AST / BUN / CRE / Ca / Cl / DBIL / GLC / IP / K / LDH / Na / PL / RALB / TBIL / TC / TG / TP / gamma-GTP: tissue Plasma

Q: How did the TERMINAL_BW (3 h) turn out when `O=C(OC[C@H]1O[C@@H](OC(=O)c2cc(O)c(O)c(OC(=O)c3cc(O)c(O)c(O)c3)c2)[C@H](OC(=O)c2cc(O)c(O)c(OC(=O)c3cc(O)c(O)c(O)c3)c2)[C@@H](OC(=O)c2cc(O)c(O)c(OC(=O)c3cc(O)c(O)c(O)c3)c2)[C@@H]1OC(=O)c1cc(O)c(O)c(OC(=O)c2cc(O)c(O)c(O)c2)c1)c1cc(O)c(O)c(OC(=O)c2cc(O)c(O)c(O)c2)c1` [TANNIC ACID] was run?
A: 187.9 g

Q: What about the APTT (3 h) of the same compound?
A: 16.5 s

Q: What about the Bas (3 h) of the same compound?
A: 0%

Q: And the Eos (3 h)?
A: 1%

Q: And the Fbg (3 h)?
A: 212 mg/dL

Q: And the Hb (3 h)?
A: 12.7 g/dL

Q: And the Ht (3 h)?
A: 37.9%

Q: And the Lym (3 h)?
A: 78.6%

Q: And the MCH (3 h)?
A: 21.9 pg

Q: And the MCHC (3 h)?
A: 33.4%

Q: What about the MCV (3 h) of the same compound?
A: 65.5 fL

Q: And the Mono (3 h)?
A: 7.6%

Q: What about the Neu (3 h) of the same compound?
A: 13.4%

Q: What about the PT (3 h) of the same compound?
A: 11.6 s

Q: And the Plat (3 h)?
A: 101.9 x10_4/uL

Q: And the RBC (3 h)?
A: 579.2 x10_4/ul

Q: What about the Ret (3 h) of the same compound?
A: 9.9%

Q: And the WBC (3 h)?
A: 113.5 x10_2/uL

Q: And the KIDNEY_L (3 h)?
A: 0.9 g

Q: And the KIDNEY_R (3 h)?
A: 0.9 g

Q: And the KIDNEY_TOTAL (3 h)?
A: 1.8 g

Q: And the LIVER (3 h)?
A: 8.5 g

Q: And the A/G (3 h)?
A: 2.2

Q: And the ALP (3 h)?
A: 1029.8 IU/L

Q: What about the ALT (3 h) of the same compound?
A: 37.6 IU/L

Q: And the AST (3 h)?
A: 68.6 IU/L

Q: What about the BUN (3 h) of the same compound?
A: 13.6 mg/dL

Q: And the CRE (3 h)?
A: 0.5 mg/dL

Q: What about the Ca (3 h) of the same compound?
A: 10.7 mg/dL

Q: And the Cl (3 h)?
A: 105 meq/L

Q: What about the DBIL (3 h) of the same compound?
A: 0.02 mg/dL

Q: What about the GLC (3 h) of the same compound?
A: 198 mg/dL

Q: What about the IP (3 h) of the same compound?
A: 10.6 mg/dL

Q: What about the K (3 h) of the same compound?
A: 4.7 meq/L

Q: And the LDH (3 h)?
A: 85.8 IU/L

Q: And the Na (3 h)?
A: 139.6 meq/L

Q: And the PL (3 h)?
A: 148.4 mg/dL

Q: What about the RALB (3 h) of the same compound?
A: 3.7 g/dL

Q: What about the TBIL (3 h) of the same compound?
A: 0.5 mg/dL

Q: What about the TC (3 h) of the same compound?
A: 81.6 mg/dL

Q: And the TG (3 h)?
A: 42.4 mg/dL

Q: What about the TP (3 h) of the same compound?
A: 5.3 g/dL

Q: And the gamma-GTP (3 h)?
A: 1.2 IU/L

Q: What about the TERMINAL_BW (6 h) of the same compound?
A: 184.2 g

Q: What about the APTT (6 h) of the same compound?
A: 16.5 s

Q: And the Bas (6 h)?
A: 0%

Q: What about the Eos (6 h) of the same compound?
A: 1%

Q: And the Fbg (6 h)?
A: 214.4 mg/dL

Q: What about the Hb (6 h) of the same compound?
A: 13 g/dL

Q: And the Ht (6 h)?
A: 39.1%

Q: And the Lym (6 h)?
A: 75.4%

Q: What about the MCH (6 h) of the same compound?
A: 22 pg

Q: And the MCHC (6 h)?
A: 33.3%

Q: And the MCV (6 h)?
A: 66.1 fL

Q: What about the Mono (6 h) of the same compound?
A: 8.6%

Q: What about the Neu (6 h) of the same compound?
A: 15.2%

Q: And the PT (6 h)?
A: 12 s

Q: What about the Plat (6 h) of the same compound?
A: 112.5 x10_4/uL

Q: What about the RBC (6 h) of the same compound?
A: 591.4 x10_4/ul

Q: And the Ret (6 h)?
A: 9.6%

Q: And the WBC (6 h)?
A: 93 x10_2/uL

Q: What about the KIDNEY_L (6 h) of the same compound?
A: 0.9 g

Q: What about the KIDNEY_R (6 h) of the same compound?
A: 0.9 g

Q: And the KIDNEY_TOTAL (6 h)?
A: 1.8 g

Q: And the LIVER (6 h)?
A: 8.2 g

Q: And the A/G (6 h)?
A: 1.9

Q: And the ALP (6 h)?
A: 784.6 IU/L

Q: And the ALT (6 h)?
A: 38.4 IU/L

Q: What about the AST (6 h) of the same compound?
A: 67.2 IU/L

Q: And the BUN (6 h)?
A: 12.2 mg/dL

Q: And the CRE (6 h)?
A: 0.5 mg/dL

Q: And the Ca (6 h)?
A: 10.6 mg/dL

Q: And the Cl (6 h)?
A: 105.6 meq/L

Q: And the DBIL (6 h)?
A: 0.03 mg/dL

Q: And the GLC (6 h)?
A: 184.2 mg/dL

Q: And the IP (6 h)?
A: 10.2 mg/dL

Q: What about the K (6 h) of the same compound?
A: 4.8 meq/L

Q: What about the LDH (6 h) of the same compound?
A: 106.8 IU/L

Q: What about the Na (6 h) of the same compound?
A: 139.2 meq/L

Q: And the PL (6 h)?
A: 133 mg/dL

Q: What about the RALB (6 h) of the same compound?
A: 3.4 g/dL

Q: And the TBIL (6 h)?
A: 0.6 mg/dL

Q: And the TC (6 h)?
A: 74.4 mg/dL

Q: And the TG (6 h)?
A: 32 mg/dL

Q: What about the TP (6 h) of the same compound?
A: 5.2 g/dL

Q: And the gamma-GTP (6 h)?
A: 1.4 IU/L

Q: And the TERMINAL_BW (9 h)?
A: 182 g

Q: What about the APTT (9 h) of the same compound?
A: 16.4 s

Q: What about the Bas (9 h) of the same compound?
A: 0%

Q: And the Eos (9 h)?
A: 1%

Q: And the Fbg (9 h)?
A: 219.8 mg/dL

Q: What about the Hb (9 h) of the same compound?
A: 13 g/dL

Q: What about the Ht (9 h) of the same compound?
A: 39%

Q: What about the Lym (9 h) of the same compound?
A: 74.8%

Q: And the MCH (9 h)?
A: 21.9 pg

Q: And the MCHC (9 h)?
A: 33.3%

Q: And the MCV (9 h)?
A: 65.9 fL

Q: And the Mono (9 h)?
A: 6.8%

Q: And the Neu (9 h)?
A: 17.2%

Q: What about the PT (9 h) of the same compound?
A: 12.1 s

Q: And the Plat (9 h)?
A: 122.2 x10_4/uL

Q: What about the RBC (9 h) of the same compound?
A: 592.8 x10_4/ul

Q: What about the Ret (9 h) of the same compound?
A: 11%

Q: What about the WBC (9 h) of the same compound?
A: 92.9 x10_2/uL

Q: And the KIDNEY_L (9 h)?
A: 0.8 g

Q: What about the KIDNEY_R (9 h) of the same compound?
A: 0.8 g

Q: And the KIDNEY_TOTAL (9 h)?
A: 1.6 g

Q: What about the LIVER (9 h) of the same compound?
A: 7.5 g

Q: And the A/G (9 h)?
A: 2.1

Q: And the ALP (9 h)?
A: 836.4 IU/L

Q: What about the ALT (9 h) of the same compound?
A: 35 IU/L

Q: What about the AST (9 h) of the same compound?
A: 60.6 IU/L

Q: And the BUN (9 h)?
A: 12.6 mg/dL

Q: And the CRE (9 h)?
A: 0.4 mg/dL

Q: And the Ca (9 h)?
A: 10.4 mg/dL

Q: And the Cl (9 h)?
A: 105.4 meq/L

Q: And the DBIL (9 h)?
A: 0.034 mg/dL

Q: What about the GLC (9 h) of the same compound?
A: 191.4 mg/dL

Q: And the IP (9 h)?
A: 10 mg/dL

Q: What about the K (9 h) of the same compound?
A: 5.1 meq/L

Q: What about the LDH (9 h) of the same compound?
A: 92.2 IU/L

Q: And the Na (9 h)?
A: 137.2 meq/L

Q: What about the PL (9 h) of the same compound?
A: 126.8 mg/dL

Q: And the RALB (9 h)?
A: 3.7 g/dL

Q: What about the TBIL (9 h) of the same compound?
A: 0.5 mg/dL

Q: What about the TC (9 h) of the same compound?
A: 70.4 mg/dL

Q: What about the TG (9 h) of the same compound?
A: 32.4 mg/dL

Q: And the TP (9 h)?
A: 5.4 g/dL

Q: What about the gamma-GTP (9 h) of the same compound?
A: 1.8 IU/L

Q: What about the TERMINAL_BW (24 h) of the same compound?
A: 201.5 g

Q: And the APTT (24 h)?
A: 15.9 s

Q: What about the Bas (24 h) of the same compound?
A: 0%

Q: And the Eos (24 h)?
A: 0.8%

Q: What about the Fbg (24 h) of the same compound?
A: 217.8 mg/dL

Q: What about the Hb (24 h) of the same compound?
A: 13 g/dL

Q: And the Ht (24 h)?
A: 38.9%

Q: And the Lym (24 h)?
A: 75%

Q: What about the MCH (24 h) of the same compound?
A: 22 pg

Q: What about the MCHC (24 h) of the same compound?
A: 33.4%

Q: What about the MCV (24 h) of the same compound?
A: 65.8 fL

Q: What about the Mono (24 h) of the same compound?
A: 8.2%

Q: What about the Neu (24 h) of the same compound?
A: 16.2%

Q: What about the PT (24 h) of the same compound?
A: 11.7 s

Q: What about the Plat (24 h) of the same compound?
A: 110.3 x10_4/uL

Q: And the RBC (24 h)?
A: 591.6 x10_4/ul

Q: What about the Ret (24 h) of the same compound?
A: 9.5%

Q: And the WBC (24 h)?
A: 114.2 x10_2/uL

Q: What about the KIDNEY_L (24 h) of the same compound?
A: 0.9 g

Q: And the KIDNEY_R (24 h)?
A: 0.9 g

Q: What about the KIDNEY_TOTAL (24 h) of the same compound?
A: 1.8 g

Q: What about the LIVER (24 h) of the same compound?
A: 10.2 g

Q: And the A/G (24 h)?
A: 1.7

Q: What about the ALP (24 h) of the same compound?
A: 852.4 IU/L

Q: What about the ALT (24 h) of the same compound?
A: 44.4 IU/L

Q: What about the AST (24 h) of the same compound?
A: 67.8 IU/L

Q: And the BUN (24 h)?
A: 18.4 mg/dL

Q: And the CRE (24 h)?
A: 0.5 mg/dL

Q: And the Ca (24 h)?
A: 10.8 mg/dL

Q: What about the Cl (24 h) of the same compound?
A: 103.8 meq/L

Q: And the DBIL (24 h)?
A: 0.002 mg/dL

Q: What about the GLC (24 h) of the same compound?
A: 193.8 mg/dL

Q: And the IP (24 h)?
A: 9.1 mg/dL

Q: What about the K (24 h) of the same compound?
A: 4.4 meq/L

Q: What about the LDH (24 h) of the same compound?
A: 109.6 IU/L

Q: And the Na (24 h)?
A: 138.8 meq/L

Q: And the PL (24 h)?
A: 139 mg/dL

Q: What about the RALB (24 h) of the same compound?
A: 3.5 g/dL

Q: What about the TBIL (24 h) of the same compound?
A: 0.3 mg/dL

Q: What about the TC (24 h) of the same compound?
A: 75.2 mg/dL

Q: And the TG (24 h)?
A: 103.8 mg/dL

Q: And the TP (24 h)?
A: 5.6 g/dL

Q: And the gamma-GTP (24 h)?
A: 1.2 IU/L

Reference: ChEMBL document CHEMBL3885861, “Open TG-GATES”
